From patent US9040527B2, “Pyrimidinediamine kinase inhibitors” (Rigel Pharmaceuticals, Inc., priority 2008, dated 2015) come the findings set out here.

Assay [1] has as its target T1, PLK1 (Homo sapiens, UniProt P53350). Briefly: Cellular PLK1 assay in K562 cells overexpressing CDC25C. Particulars: nocodazole arrested, cdc25c p-Ser198 readout. Type of assay: cell-based. The arrangement: endogenous in cells; host or cells: K562 (human chronic myelogenous leukemia) overexpressing CDC25C, nocodazole-arrested. Here is the method:
(§1) Inhibition of PLK1 was measured by quantifying phosphorylation of PLK1 substrates using chemiluminescent and fluorogenic probes. The protocols for these assays are provided below.
1. Culturing of K562 Cells
Human chronic myelogenous leukemia K562 cells (American Tissue Culture Collection) overexpressing CDC25C, were grown in Growth Medium having the following composition: Iscove Dulbecco's Modified Eagle's Medium (“Iscove DMEM”, Mediatech/Cellgro, Cat. #10-013-CV), 10% Fetal Bovine Serum (“FBS”, SAFC Biosciences, Cat. #12106-500M), and 1% penicillin/streptomycin (“pen-strep”, Mediatech/Cellgro, Cat. #30-002-CI). The cells were plated in 96 well round bottom tissue culture plates (Fisher, Costar* Cell Culture plates, Cat. #07-200-95) at 100,000 cells per 50 μL of Growth Medium per well. Nocodazole (Sigma, Cat. # M1404) was added to the growth media to arrest the cells in the G2 or M phase, at 333 nM concentration. The cells were incubated with nocodazole for 18 hours at 37° C. prior to addition of tested compounds.
2. Treatment of Cells with the Tested Compounds
Solutions of tested compounds in DMSO at different concentrations were prepared using serial dilutions. Each compound was tested at 8 concentration points, 10 μM, 3.3 μM, 1.11 μM, 0.37 μM, 0.12 μM, 0.04 μM, 0.014 μM, 0.005 μM, duplicate replicates.
Two controls were performed: “DMSO alone” control in which nocodazole and DMSO were present but no compounds were added, and “nocodazole alone” control, in which only nocodazole was present, but neither DMSO nor compounds were added.
The solutions of compounds were prepared by diluting 10 mM compound 1:1 in DMSO (5 μL 10 mM compound and 5 μL DMSO), followed by 1:3 serial dilutions of compound in DMSO performed by diluting 3 μL of higher concentration compound solution serially into 6 μL DMSO to give 3-fold dilutions. Next, 3 μL of each compound solution at each concentration was transferred to 750 μL of Growth Medium. In “DMSO alone” control 3 μL of DMSO alone was added to 750 μL of Growth Medium.
After the diluted compounds were mixed well in the Growth Medium, 50 μL of each compound solution in DMSO/Growth Medium was transferred to each well of the 96-plate containing cells in 50 μL of Growth Medium/Nocodazole.
The cells and compounds were incubated for 120 minutes at 37° C., in an atmosphere containing 5% CO2.
3. Fixation and Permeabilization of the Cells
After the cells were incubated with compounds, the cells were spun down at 1,000 rpm for 5 minutes at 4° C. and supernatants were removed by flicking the plates. Cells were then washed with 200 μl of ice cold PBS, spun down again and supernatants removed. Cells were then fixed and permeabilized by addition of 100 μL/well of Fixation and Permeabilization Solution (1× buffer provided in BD Biosciences Cytofix/Cytoperm™ Fixation/Permeabilization kit, Cat. #554714) and incubation for 20 minutes at room temperature. The fixative was then removed by centrifugation (5 minutes at 2,000 rpm), and plates were flicked to remove the fixative and washed twice, each time with 200 μL/well BD Perm/Wash buffer (10× concentrate provided in BD Biosciences Cytofix/Cytoperm™ Fixation/Permeabilization kit, Cat. #554714, 1× buffer prepared by dilution in distilled H2O).
Cells were spun down at 1,000 rpm for 5 minutes at 4° C. Supernatants were removed by flicking the plates. A solution of a primary antibody specific for cdc25cp-Ser198 was prepared by diluting Rabbit cdc25c (Ser198) antibody (Cell Signaling, #9529L) 1:50 in a Fluorescence Activated Cell Sorting (“FACS”) Buffer (2% FBS in PBS). The cell pellets were resuspended in 50 μL of the primary antibody solution. 50 μL of FACS buffer was added to unstained controls. Staining was allowed to proceed overnight at room temperature.
The plates were then washed by addition of 200 μL of FACS Buffer to each well, were centrifuged and the supernatant was removed. […]

Assay [2] has as its target T1, PLK1. The experiment in a line: In vitro PLK1 ELISA assay (biochemical). The arrangement: purchased Cell Signalling 7728. Here is the method: as §1
In Vitro PLK1 ELISA Assay
1. Preparation of Assay Plates.
Costar 96-well black or white solid flat high binding plates (Fisher Scientific, Catalog No. 07-200-591) were coated with Neutravidin (Pierce, Catalog No. 31000) using the following protocol. A 0.01 mg/mL solution of Neutravidin in 1× Phosphate Buffered Saline (“PBS”, Cellgro/Mediatech, Catalog No. 21-040-CV) was added to each well (100 μL/well) and was incubated for 18-24 hours at 4° C. The plates were then washed with 1× Phosphate Buffer Saline—Tween (“PBST”, Calbiochem, Catalog No. 524653) buffer using a plate washer. The plates were treated with bovine serum albumin (“BSA”, Sigma, Catalog No. A7906) to block non-specific binding sites, by adding a 2% BSA solution in 1×PBST buffer to each well (100 μL/well) and incubating the plates for 1 hour at room temperature. The plates were then washed with 1×PBST buffer using a plate washer.
2. PLK1-Catalyzed Phosphorylation Reaction
An aqueous buffer solution A having the following composition was prepared:
20 mM HEPES (Cellgro/Mediatech, Catalog No. 25-060Ci), pH 7.2;
5 mM MgCl2 (Sigma, Catalog No. M2393);
2 mM MnCl2.4H2O (EM Biosciences, Catalog No. MX0185-2);
1 mM Dithiothreitol (“DTT”, Fluka, Catalog No. B4184).
Next, the substrate solution B was prepared by adding 2.6 μL of 10 mM ATP (Sigma, Catalog No. A7699) and 6.4 μL of the 1 mM PLK1 substrate, CHK2-derived peptide Biotin-SSLETVSTQELYSIP (custom synthesized at Anaspec) SEQ ID: No. 1, to 4691 μL of the buffer solution A. The concentration of the ATP in solution B is 5.44 μM (1.36×); the concentration of the PLK1 substrate in solution B is 1.36 μM (1.36×).
Compound solutions C of varying concentrations for each compound were prepared by dissolving each compound in dimethylsulfoxide (DMSO, Sigma, Catalog No. D2650) to varying concentrations, followed by adding 2 μL of each solution to 38 μL of the buffer solution A, thereby forming 10× compound solutions in 5% DMSO.
A PLK1 solution D was prepared by adding 8.4 μL of 100 μg/mL PLK1 (Cell Signalling, Catalog No. 7728) to 1392 μL of the buffer solution A, thereby forming 0.6 μg/mL (6×) PLK1 solution.
The aqueous 1.36× substrate solution B was added to each well (44 μL/well) resulting in binding of the substrate to the plate via biotin/neutravidin interaction. Then 10× compound solutions C for each tested compound at each tested concentration were added to each well (6 μL/well). Next, 6×PLK1 solution D was added to each well (10 μL/well).
The final concentrations of tested compounds in each well were 10 μM, 3.3 μM, 1.1 μM, 0.36 μM, 0.12 μM, 0.04 μM, 0.014 μM, and 0.005 μM.
The obtained reaction mixtures were incubated in the wells for 45 minutes at room temperature, allowing PLK1-catalyzed phosphorylation of the substrate to proceed. The plates were then washed with 1×PBST solution using a plate washer, such that the bound phosphorylated or unphosphorylated substrate remains attached to the wells upon washing.
The washed plates were developed by treating the plates with a primary antibody that is specific for the phosphorylated substrate, followed by treatment with a secondary antibody that is specific for the primary antibody, and that is capable of catalyzing a reaction that results in a chemiluminescent readout. The chemiluminescent readout was used to quantify the substrate phosphorylation, and, consequently, to determine IC50 values for PLK1 inhibition, and was measured using a luminometer (Perkin Elmer/Wallac plate reader). The plate development protocol is described below.
A mixed antibody solution E was prepared by adding 1 μL of the primary antibody, rabbit p-CHK2(T68) (Rockland, Catalog No. 401280), and 1 μL of the secondary antibody, HRP-goat anti-rabbit IgG (Jackson Immunoresearch Catalog No. 111-035-003) to 10000 μL of 0.1% BSA in 1×PBST buffer. […]

Setting [3] is: ELISA, CHK2-derived peptide substrate, read-out: PLK1 IC50 (μM) biochemical assay.
Where [4] appears, read: read-out: IC50 in biochemical in vitro PLK1 ELISA assay (less than 10 μM).
[5] abbreviates: read-out: IC50 in biochemical ELISA assay (less than 0.01 μM).

Molecules are shown by their SMILES.

T1 sequence (P53350 whole entry): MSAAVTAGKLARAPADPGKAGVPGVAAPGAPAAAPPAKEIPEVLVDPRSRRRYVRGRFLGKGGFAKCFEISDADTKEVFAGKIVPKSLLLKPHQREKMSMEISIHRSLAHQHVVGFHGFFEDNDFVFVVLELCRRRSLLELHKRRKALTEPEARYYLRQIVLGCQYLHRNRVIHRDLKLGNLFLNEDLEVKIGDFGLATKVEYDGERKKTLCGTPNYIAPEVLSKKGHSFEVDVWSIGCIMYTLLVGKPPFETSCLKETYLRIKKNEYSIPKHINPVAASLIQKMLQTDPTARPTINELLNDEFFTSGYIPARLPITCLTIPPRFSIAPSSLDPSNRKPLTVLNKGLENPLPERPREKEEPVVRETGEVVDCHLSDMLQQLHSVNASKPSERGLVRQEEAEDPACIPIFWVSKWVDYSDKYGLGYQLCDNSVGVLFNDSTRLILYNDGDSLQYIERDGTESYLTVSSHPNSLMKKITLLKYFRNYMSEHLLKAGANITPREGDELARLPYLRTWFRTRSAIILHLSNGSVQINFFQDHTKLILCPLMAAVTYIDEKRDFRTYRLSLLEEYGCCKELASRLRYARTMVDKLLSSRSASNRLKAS

In the case of `CN1CCN(c2cccc(Nc3ncc(F)c(Nc4ccc5c(c4)NCCO5)n3)c2)CC1` [compound 20, N4-(3,4-dihydro-2H-benzo[b][1,4]oxazin-6-yl)-5-fluoro-N2-(3-(4-methylpiperazin-1-yl)phenyl)pyrimidine-2,4-diamine], the figures for the IC50 against PLK1 [1], at PLK1 [2] (setting [3]) and on PLK1 [2] (setting [4]) were 0.5 to 5 µM, less than 0.5 µM and less than 10 µM, respectively.

`CN1CCN(c2cccc(Nc3nccc(Nc4ccc5c(n4)NCCO5)n3)c2)CC1` [compound 21, N4-(3,4-dihydro-2H-pyrido[3,2-b][1,4]oxazin-6-yl)-N2-(3-(4-methylpiperazin-1-yl)phenyl)pyrimidine-2,4-diamine]: the IC50 against PLK1 [1] is no less than 10 µM; at PLK1 [2] (setting [3]) it was less than 0.5 µM; at PLK1 [2] (setting [4]) it was less than 10 µM.

With `Cc1ccc(Nc2ncc(F)c(Nc3ccc4c(n3)NCCO4)n2)cc1N1CCN(C)CC1` [compound 22, N4-(3,4-dihydro-2H-pyrido[3,2-b][1,4]oxazin-6-yl)-5-fluoro-N2-(4-methyl-3-(4-methylpiperazin-1-yl)phenyl)pyrimidine-2,4-diamine], the IC50 against PLK1 [1] and on PLK1 [2] (setting [3]) was no less than 10 µM in each case.

On to `CC(C)Oc1ccc(N2CCN(C)CC2)cc1Nc1ncc(F)c(Nc2ccc3c(n2)NCCO3)n1` [compound 23, N4-(3,4-dihydro-2H-pyrido[3,2-b][1,4]oxazin-6-yl)-5-fluoro-N2-(2-isopropoxy-5-(4-methylpiperazin-1-yl)phenyl)pyrimidine-2,4-diamine], for which the IC50 against PLK1 [1] was 0.5 to 5 µM; at PLK1 [2] (setting [3]), less than 0.5 µM; at PLK1 [2] (setting [4]), less than 10 µM.

As for `CN1CCN(c2cc(Nc3ncc(F)c(Nc4ccc5c(n4)NCCO5)n3)cc(C(F)(F)F)c2)CC1` [compound 24, N4-(3,4-dihydro-2H-pyrido[3,2-b][1,4]oxazin-6-yl)-5-fluoro-N2-(3-(4-methylpiperazin-1-yl)-5-(trifluoro-methyl)phenyl)pyrimidine-2,4-diamine], the IC50 is no less than 10 µM at PLK1 [1], less than 0.5 µM on PLK1 [2] (setting [3]) and less than 10 µM at PLK1 [2] (setting [4]).

On to `CC(C)Oc1cc(Nc2ncc(F)c(Nc3ccc4c(n3)NC(=O)CO4)n2)cc(N2CCN(C)CC2)c1` [compound 25, 6-(5-fluoro-2-(3-isopropoxy-5-(4-methylpiperazin-1-yl)phenylamino)pyrimidin-4-ylamino)-2H-pyrido[3,2-b][1,4]oxazin-3(4H)-one], for which the IC50 at PLK1 [1] is less than 0.5 µM; at PLK1 [2] (setting [3]) it was less than 0.5 µM; at PLK1 [2] (setting [5]) it was less than 0.01 µM; on PLK1 [2] (setting [4]) it was less than 10 µM.

For `CC(C)Oc1cc(Nc2ncc(F)c(Nc3ccc4c(n3)NCCO4)n2)cc(N2CCN(C)CC2)c1` [compound 26, N4-(3,4-dihydro-2H-pyrido[3,2-b][1,4]oxazin-6-yl)-5-fluoro-N2-(3-isopropoxy-5-(4-methylpiperazin-1-yl)phenyl)pyrimidine-2,4-diamine], the IC50 was less than 0.5 µM against PLK1 [1], less than 0.5 µM at PLK1 [2] (setting [3]), less than 0.01 µM at PLK1 [2] (setting [5]) and less than 10 µM at PLK1 [2] (setting [4]).

In the case of `CC(C)c1ccc(N2CCN(C)CC2)cc1Nc1ncc(F)c(Nc2ccc3c(n2)NCCO3)n1` [compound 27, N4-(3,4-dihydro-2H-pyrido[3,2-b][1,4]oxazin-6-yl)-5-fluoro-N2-(2-isopropyl-5-(4-methylpiperazin-1-yl)phenyl)pyrimidine-2,4-diamine], the IC50 against PLK1 [1] is 0.5 to 5 µM; on PLK1 [2] (setting [3]), less than 0.5 µM; at PLK1 [2] (setting [4]) it was less than 10 µM.

For the molecule `CCCN1CCOc2ccc(Nc3nc(Nc4ccc(N5CC6CC5CN6S(C)(=O)=O)c(C)c4)ncc3F)nc21` (stereo not shown) [compound 28, 5-fluoro-N2-(3-methyl-4-(5-(methylsulfonyl)-2,5-diaza-bicyclo[2.2.1]heptan-2-yl)phenyl)-N4-(4-propyl-3,4-dihydro-2H-pyrido[3,2-b][1,4]oxazin-6-yl)pyrimidine-2,4-diamine], the IC50 against PLK1 [1] is 0.5 to 5 µM; on PLK1 [2] (setting [3]), 0.5 to 5 µM; on PLK1 [2] (setting [4]), less than 10 µM.

With `CN1CCN(c2cc(Nc3ncc(F)c(Nc4ccc5c(n4)NC(=O)CO5)n3)cc(C(F)(F)F)c2)CC1` [compound 29, 6-(5-fluoro-2-(3-(4-methylpiperazin-1-yl)-5-(trifluoromethyl)phenyl-amino)pyrimidin-4-ylamino)-2H-pyrido[3,2-b][1,4]oxazin-3(4H)-one], the results for the 50% inhibitory concentration (IC50) on PLK1 [1], at PLK1 [2] (setting [3]) and at PLK1 [2] (setting [4]) were no less than 10 µM, less than 0.5 µM and less than 10 µM, respectively.
